According to ChEMBL document CHEMBL1201862, “PubChem BioAssay data set” (2004):
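Compound exposure: 48 hours, 5 concentrations, 96-well plates. GI50 is the concentration that inhibits growth by half.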 The source made the active and inactive calls. No stated cut-off is given here; in the data, active = GI50 up to about 1.1 µM and inactive = higher.

Columns and labels:
Assay in all cases: DTP human tumour cell line panel, 48 h
NCI/ADR-RES = system: NCI/ADR-RES
IGROV-1 = system: IGROV-1
MDA-N = system: MDA-N
UACC-257 = system: UACC-257
SK-MEL-5 = system: SK-MEL-5
CCRF-CEM = system: CCRF-CEM
PC-3 = system: PC-3
HCT-15 = system: HCT-15
HL-60 = system: HL-60
U-251 = system: U-251
NCI-H23 = system: NCI-H23
SN12C = system: SN12C
ACHN = system: ACHN
OVCAR-8 = system: OVCAR-8
SK-OV-3 = system: SK-OV-3
RPMI-8226 = system: RPMI-8226
MOLT-4 = system: MOLT-4
T47D = system: T47D
SNB-75 = system: SNB-75
LOX IMVI = system: LOX IMVI

| SMILES | GI50 (NCI/ADR-RES) | GI50 (IGROV-1) | GI50 (MDA-N) | GI50 (UACC-257) | GI50 (SK-MEL-5) | GI50 (CCRF-CEM) | GI50 (PC-3) | GI50 (HCT-15) | GI50 (HL-60) | GI50 (U-251) | GI50 (NCI-H23) | GI50 (SN12C) | GI50 (ACHN) | GI50 (OVCAR-8) | GI50 (SK-OV-3) | GI50 (RPMI-8226) | GI50 (MOLT-4) | GI50 (T47D) | GI50 (SNB-75) | GI50 (LOX IMVI) |
| --- | --- | --- | --- | --- | --- | --- | --- | --- | --- | --- | --- | --- | --- | --- | --- | --- | --- | --- | --- | --- |
| Cc1ccc(C(=O)Cc2nc3ncccc3[nH]c2=O)cc1 | 59 µM (inactive) | 37.2 µM (inactive) | 74.8 µM (inactive) | 40.6 µM (inactive) | 40.8 µM (inactive) | > 100 µM (inactive) | 43.9 µM (inactive) | 41.2 µM | > 100 µM (inactive) | 22.5 µM (inactive) | 9.29 µM (inactive) | 55.5 µM (inactive) | 25.7 µM (inactive) | 23.6 µM (inactive) | 23 µM (inactive) | 59 µM (inactive) | 70.3 µM (inactive) | 45.5 µM (inactive) |  |  |
| CC1(C)COC(c2ccccc2-c2ccccc2)=N1 | > 100 µM (inactive) | 67.8 µM (inactive) | > 100 µM (inactive) | 66.1 µM (inactive) |  | > 100 µM (inactive) | > 100 µM (inactive) | > 100 µM | > 100 µM (inactive) | 89.5 µM (inactive) | 88.5 µM (inactive) | > 100 µM (inactive) | > 100 µM (inactive) | > 100 µM (inactive) | > 100 µM (inactive) | > 100 µM (inactive) | > 100 µM (inactive) | 83.2 µM (inactive) |  |  |
| OC1(C2(c3ccc(Cl)cc3)CCCC2)c2ccccc2C2=NCCN21 (configuration not stated) | 17.1 µM (inactive) | 12.9 µM (inactive) | 16.1 µM (inactive) | 14.2 µM (inactive) | 12.4 µM (inactive) | 14.4 µM (inactive) | 11.9 µM (inactive) | 15.6 µM | 14.4 µM (inactive) | 14.2 µM (inactive) | 18.7 µM (inactive) | 17.5 µM (inactive) | 16.7 µM (inactive) | 17.3 µM (inactive) | 18.8 µM (inactive) |  | 13.3 µM (inactive) | 6.43 µM (inactive) | 3.83 µM (inactive) | 14.4 µM (inactive) |
| O=C(/C=C/c1ccccc1)/C=N/N1C(=S)N(c2ccccc2)C(=N\c2ccccc2)/C1=N/c1ccccc1 | > 100 µM (inactive) | > 100 µM (inactive) | 82.4 µM (inactive) | > 100 µM (inactive) | > 100 µM (inactive) |  | > 100 µM (inactive) | > 100 µM |  | > 100 µM (inactive) | > 100 µM (inactive) | > 100 µM (inactive) | > 100 µM (inactive) | > 100 µM (inactive) | > 100 µM (inactive) | > 100 µM (inactive) | > 100 µM (inactive) | > 100 µM (inactive) |  |  |
| Cc1cn2cc(-c3cccs3)nc2s1 |  | > 86.3 µM (inactive) | > 72.6 µM (inactive) | > 85.9 µM (inactive) | > 61.8 µM (inactive) | 54.6 µM (inactive) | > 74.3 µM (inactive) | > 71.9 µM | 55.8 µM (inactive) | > 100 µM (inactive) | > 75.5 µM (inactive) | > 100 µM (inactive) | > 88.5 µM (inactive) | > 100 µM (inactive) | > 100 µM (inactive) | > 100 µM (inactive) | 58.7 µM (inactive) | 25.4 µM (inactive) | > 100 µM (inactive) | > 45.9 µM (inactive) |
| COC(=O)c1sc2c(Cl)c(Cl)sc2c1Cl | > 100 µM (inactive) | > 100 µM (inactive) | > 100 µM (inactive) | > 100 µM (inactive) | > 100 µM (inactive) | > 100 µM (inactive) | > 100 µM (inactive) | > 100 µM | > 100 µM (inactive) | 97.5 µM (inactive) | > 100 µM (inactive) | > 100 µM (inactive) | > 100 µM (inactive) | > 100 µM (inactive) | > 100 µM (inactive) |  | > 100 µM (inactive) | > 100 µM (inactive) | > 100 µM (inactive) | > 100 µM (inactive) |
| CCOC(=O)CC1c2ccc(O)cc2OC(=O)C1c1ccc([N+](=O)[O-])cc1 (configuration not stated) | 27 µM (inactive) | 21.5 µM (inactive) | 28.6 µM (inactive) | 28.8 µM (inactive) | 15.4 µM (inactive) | 22.8 µM (inactive) | 22.5 µM (inactive) | 30.4 µM | 34.1 µM (inactive) | 35.8 µM (inactive) | 27.7 µM (inactive) | 21.8 µM (inactive) | 25.2 µM (inactive) | 29 µM (inactive) | 33.3 µM (inactive) |  | 22.8 µM (inactive) | 15.8 µM (inactive) | 23.9 µM (inactive) | 40.7 µM (inactive) |
| CC(C)(C)C1=C(Br)C(OC(=O)C(F)(F)F)(C(C)(C)C)OP1(=O)c1ccccc1 (configuration not stated) | 35.1 µM (inactive) | 35.7 µM (inactive) | 60.8 µM (inactive) | 72.9 µM (inactive) | 65.3 µM (inactive) |  | 18.1 µM (inactive) | 31.5 µM | 24.8 µM (inactive) | 35.6 µM (inactive) | 33.7 µM (inactive) | 39 µM (inactive) | 32.7 µM (inactive) | 34.7 µM (inactive) | 39.1 µM (inactive) |  |  | 30 µM (inactive) | 33.4 µM (inactive) | 45.8 µM (inactive) |
| COc1cccc(C23CCN(C)C(CC(O)C2)C3)c1OC (configuration not stated) | > 100 µM (inactive) | > 100 µM (inactive) | > 100 µM (inactive) | > 100 µM (inactive) | > 100 µM (inactive) | > 100 µM (inactive) | > 100 µM (inactive) | > 100 µM | > 100 µM (inactive) | > 100 µM (inactive) | > 100 µM (inactive) | > 100 µM (inactive) | > 100 µM (inactive) | > 100 µM (inactive) | > 100 µM (inactive) | > 100 µM (inactive) | > 100 µM (inactive) | > 100 µM (inactive) |  | > 100 µM (inactive) |
| Cc1nc(C)c(N2CCN(C(=O)O)CC2)c(O)n1 | > 100 µM (inactive) | > 100 µM (inactive) | > 100 µM (inactive) | > 100 µM (inactive) | > 100 µM (inactive) | > 100 µM (inactive) | > 100 µM (inactive) | > 100 µM | > 100 µM (inactive) | > 100 µM (inactive) | > 100 µM (inactive) | > 100 µM (inactive) | > 100 µM (inactive) | > 100 µM (inactive) | > 100 µM (inactive) | > 100 µM (inactive) | > 100 µM (inactive) | > 100 µM (inactive) |  | > 100 µM (inactive) |
| O=C(O)CC1OCC=C2C[N+]3([O-])CCC45c6ccccc6NC4C1C2CC53 (configuration not stated) | > 100 µM (inactive) | > 100 µM (inactive) | > 100 µM (inactive) | > 100 µM (inactive) | > 100 µM (inactive) |  | > 100 µM (inactive) | > 100 µM | > 100 µM (inactive) | > 100 µM (inactive) | > 100 µM (inactive) | > 100 µM (inactive) | > 100 µM (inactive) | > 100 µM (inactive) | > 100 µM (inactive) | > 100 µM (inactive) | > 100 µM (inactive) | > 100 µM (inactive) |  | > 100 µM (inactive) |
| CC(O)CN1c2ccccc2Sc2ccccc21 (configuration not stated) | > 100 µM (inactive) | > 100 µM (inactive) | > 100 µM (inactive) | > 100 µM (inactive) | > 100 µM (inactive) | > 100 µM (inactive) | > 100 µM (inactive) | > 100 µM |  | > 100 µM (inactive) | > 100 µM (inactive) | > 100 µM (inactive) | > 100 µM (inactive) | > 100 µM (inactive) | > 100 µM (inactive) |  | > 100 µM (inactive) | > 100 µM (inactive) |  | > 100 µM (inactive) |
| Cc1ccc(-c2cc(-c3ccccc3)nc(N)n2)c(O)c1 | > 100 µM (inactive) |  | 4.78 µM (inactive) | > 100 µM (inactive) | 6.46 µM (inactive) | 3.4 µM (inactive) | > 32.9 µM (inactive) | > 22.9 µM | 2.22 µM (inactive) | 42.1 µM (inactive) | > 100 µM (inactive) | > 100 µM (inactive) | > 100 µM (inactive) | 62.4 µM (inactive) | > 75.7 µM (inactive) | 3.06 µM (inactive) | 3.52 µM (inactive) | > 100 µM (inactive) |  |  |
| ClC(Cl)(Cl)C1CCOC1n1nnc2ccccc21 (configuration not stated) | 42.2 µM (inactive) | > 100 µM (inactive) | > 100 µM (inactive) | > 100 µM (inactive) | 45.2 µM (inactive) | 44.1 µM (inactive) | > 100 µM (inactive) |  | 11.9 µM (inactive) | 90.4 µM (inactive) | 24.3 µM (inactive) | > 100 µM (inactive) |  | > 100 µM (inactive) | > 100 µM (inactive) |  | 21.9 µM (inactive) | > 100 µM (inactive) | 1.2 µM (inactive) |  |
| CC1CC[C@@]2(OC1)OC1CC3C4CCC5C[C@@H](OC6OC(CO)C(OC7OC(CO)C(O)C(OC8OC(CO)C(O)C(OC9OC(CO)C(O)C(O)C9O)C8O)C7OC7OC(CO)C(O)C(O)C7O)C(O)C6O)[C@H](O)C[C@]5(C)C4CC[C@]3(C)C1[C@@H]2C (some centres not stated) | > 80.5 µM (inactive) |  | > 80.5 µM (inactive) | > 80.5 µM (inactive) | > 80.5 µM (inactive) | > 80.5 µM (inactive) | > 80.5 µM (inactive) | > 80.5 µM | > 80.5 µM (inactive) | > 80.5 µM (inactive) | > 80.5 µM (inactive) | > 80.5 µM (inactive) | > 80.5 µM (inactive) | > 80.5 µM (inactive) | > 80.5 µM (inactive) |  |  | > 80.5 µM (inactive) | > 80.5 µM (inactive) | > 80.5 µM (inactive) |
